According to patent US9981925B2, “Substituted benzo[d][1,2,3]triazines as p70S6K inhibitors” (Merck Patent GmbH, priority 2012, dated 2018):

Key:
p70S6K (T412E mutant) = p70S6K (T412E mutant) (Homo sapiens (Human), UniProt P23443, T412E); test: p70S6K enzyme assay; format: biochemical
Description: p70S6K inhibitor compounds were diluted and plated in 96 well plates. A reaction mixture including the following components were then added to the compound plate to initiate the enzyme reaction: p70S6K (3 nM, T412E mutant, Millipore) was mixed with 24 μM ATP in an assay buffer containing 100 mM Hepes (pH 7.5), 5 mM MgCl2, 1 mM DTT, 0.015% Brij and 1 μM of the substrate peptide FITC-AHA-[…]-OH (derived from the S6 ribosomal protein sequence, FITC=fluorescein isothiocyanate, AHA=6-aminohexanoic acid). The reaction was incubated for 90 min at 25° C., before the addition of 10 mM EDTA to stop the reaction. The proportion of substrate and product (phosphorylated) peptide was analyzed on a Caliper Life Sciences Lab Chip 3000, using a pressure of −1.4 psi, and upstream and downstream voltages of −3000 and −700, respectively. Product peaks were resolved before substrate peaks on the resulting chromatograms. To assess the inhibitory potential of the compounds, IC50 values were determined, as shown above.

His-AKT (Full Length) = His-AKT (Full Length) (Homo sapiens (Human), UniProt P31749); test: AKT/PKB kinase assay; format: biochemical
Description: In order to measure AKT inhibition in the Caliper Life Sciences LC3000, a TTP Mosquito liquid handling instrument was used to place 125 nl of the appropriate concentration of inhibitor in 100% DMSO (for a dose response curve calculation) into each well of a 384-well plate. To this reaction, the following components were added to a final volume of 12.5 μl: • 0.1 ng/μl His-AKT (Full Length) (Invitrogen, Part # P2999, Lot #641228C); • 160 μM ATP (Fluka, 02055); • 1 mM DTT (Sigma, D0632); • 1 mM MgCl2 (Sigma, M1028); • 1 μM substrate peptide (sequence FITC-AHA-[…]-NH2), synthesized by • Tufts Peptide Synthesis service; • 100 mM HEPES pH 7.5 (Calbiochem, 391338); and • 0.015% Brij-35 (Sigma, B4184).
The reaction was incubated for 90 min at 25° C., and then stopped by the addition of 70 μl of Stop buffer (100 mM HEPES pH 7.5, 0.015% Brij-35, 10 mM EDTA (Sigma, E7889)). The plate was read on a Caliper LC 3000 in an Off-Chip mobility shift assay format, using the following parameters for a 12-sipper chip: screening pressure −2.3 psi, upstream voltage −500, and downstream voltage −3000. These conditions cause unphosphorylated substrate and phosphorylated product peptide to resolve as separate peaks allowing direct measurement of percentage of conversion of substrate to product. The percent conversion was plotted against concentration of inhibitor to produce a sigmoidal dose response curve, from which an IC50 was calculated.

[1] = 24 μM ATP, 90 min at 25° C., Caliper mobility shift
[2] = 160 μM ATP, 90 min at 25° C., Caliper mobility shift
[3] = value printed in the synthesis paragraph

Sequence of p70S6K (T412E mutant) (P23443 whole entry T412E): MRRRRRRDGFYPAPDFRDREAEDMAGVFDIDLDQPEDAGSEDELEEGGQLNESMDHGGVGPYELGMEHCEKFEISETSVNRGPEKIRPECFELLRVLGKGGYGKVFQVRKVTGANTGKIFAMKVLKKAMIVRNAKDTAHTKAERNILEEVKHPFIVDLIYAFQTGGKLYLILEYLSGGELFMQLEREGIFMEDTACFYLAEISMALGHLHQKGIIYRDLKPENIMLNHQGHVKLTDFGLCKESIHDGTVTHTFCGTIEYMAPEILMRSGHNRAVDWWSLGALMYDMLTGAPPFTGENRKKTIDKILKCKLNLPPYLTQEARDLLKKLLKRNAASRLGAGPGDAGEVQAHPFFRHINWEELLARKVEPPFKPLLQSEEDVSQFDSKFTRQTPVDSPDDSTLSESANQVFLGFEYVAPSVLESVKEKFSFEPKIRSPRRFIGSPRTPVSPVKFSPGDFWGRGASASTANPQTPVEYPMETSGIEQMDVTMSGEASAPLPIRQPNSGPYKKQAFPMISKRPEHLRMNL
Sequence of His-AKT (Full Length) (P31749 whole entry): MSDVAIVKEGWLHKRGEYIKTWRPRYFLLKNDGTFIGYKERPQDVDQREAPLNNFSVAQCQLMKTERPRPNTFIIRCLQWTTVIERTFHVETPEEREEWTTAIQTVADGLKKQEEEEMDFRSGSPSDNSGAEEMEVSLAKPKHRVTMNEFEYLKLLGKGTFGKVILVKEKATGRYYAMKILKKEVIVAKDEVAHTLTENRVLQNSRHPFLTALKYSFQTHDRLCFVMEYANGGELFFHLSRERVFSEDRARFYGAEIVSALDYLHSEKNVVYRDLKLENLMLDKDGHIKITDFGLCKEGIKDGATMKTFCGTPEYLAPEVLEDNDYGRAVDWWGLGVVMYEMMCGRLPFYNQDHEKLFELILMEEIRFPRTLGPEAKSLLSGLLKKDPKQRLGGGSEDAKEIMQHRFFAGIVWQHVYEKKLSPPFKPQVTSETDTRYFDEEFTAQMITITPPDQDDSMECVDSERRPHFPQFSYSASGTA

Compound | IC50 (p70S6K (T412E mutant); [1]) | IC50 (His-AKT (Full Length); [2]) | IC50 (p70S6K (T412E mutant); [3]) | IC50 (His-AKT (Full Length); [3])
NC(=O)c1ccnc2c(N[C@H](CN3CC(F)C3)c3ccc(Cl)c(C(F)(F)F)c3)ncnc12 [Compound 69, 4-[(S)-1-(4-Chloro-3-trifluoromethyl-phenyl)-2-(3-fluoro-azetidin-1-yl)-ethylamino]-pyrido[3,2-d]pyrimidine-8-carboxylic Acid Amide] | < 25 nM | 25 to 100 nM |  | 
CN(C)C[C@@H](Nc1nnnc2c(C(N)=O)cccc12)c1ccc(Cl)c(Cl)c1 [Compound 15, (S)-4-((1-(3,4-dichlorophenyl)-2-(dimethylamino)ethyl)amino)benzo[d][1,2,3]triazine-8-carboxamide] | < 25 nM | < 25 nM |  | 
CCNC[C@@H](Nc1ncnc2c(C(N)=O)ccnc12)c1cc(F)c(OC)cc1F [Compound 31, 4-[(S)-1-(2,5-Difluoro-4-methoxy-phenyl)-2-ethylamino-ethylamino]-pyrido[3,2-d]pyrimidine-8-carboxylic Acid Amide] | 25 to 100 nM | > 1000 nM |  | 
NC(=O)c1ccnc2c(N[C@H](CN3CCC3)c3cccc(F)c3)ncnc12 [Compound 68, 4-[(S)-2-Azetidin-1-yl-1-(3-fluoro-phenyl)-ethylamino]-pyrido[3,2-d]pyrimidine-8-carboxylic Acid Amide] | < 25 nM | 25 to 100 nM |  | 
CNC[C@@H](Nc1ncnc2c(C(N)=O)ccnc12)c1ccc(C)c(C(F)(F)F)c1 [Compound 76, 4-[(S)-2-Methylamino-1-(4-methyl-3-trifluoromethyl-phenyl)-ethylamino]-pyrido[3,2-d]pyrimidine-8-carboxylic Acid Amide] | < 25 nM | < 25 nM |  | 
NC(=O)c1cncc2c(N[C@H](CN3CCC3)c3ccc(Cl)c(C(F)(F)F)c3)ncnc12 [Compound 20, (S)-4-((2-(azetidin-1-yl)-1-(4-chloro-3-(trifluoromethyl)phenyl)ethyl)amino)pyrido[4,3-d]pyrimidine-8-carboxamide] | < 25 nM | 25 to 100 nM |  | 
NC(=O)c1cccc2c(NC3CNCCC3c3cccc(C(F)(F)F)c3)nnnc12 (centres unmarked) [Compound 21, 4-((4-(3-(trifluoromethyl)phenyl)piperidin-3-yl)amino)benzo[d][1,2,3]triazine-8-carboxamide] | < 25 nM | < 25 nM |  | 
CN(C)C[C@@H](Nc1nnnc2c(C(N)=O)cccc12)c1ccc(Cl)c(C(F)(F)F)c1 [Compound 13, (S)-4-((1-(4-chloro-3-(trifluoromethyl)phenyl)-2-(dimethylamino)ethyl)amino)benzo-[d][1,2,3]triazine-8-carboxamide] | < 25 nM | < 25 nM |  | 
NC(=O)c1ccnc2c(NC3CNCCC3c3ccc(F)c(Cl)c3)ncnc12 (centres unmarked) [Compound 23, 4-[4-(3-Chloro-4-fluoro-phenyl)-piperidin-3-ylamino]-pyrido[3,2-d]pyrimidine-8-carboxamide] | 25 to 100 nM | 101 to 500 nM |  | 
CCNC[C@@H](Nc1ncnc2c(C(N)=O)ccnc12)c1cc(F)cc(C(F)(F)F)c1 [Compound 34, 4-[(S)-2-Ethylamino-1-(3-fluoro-5-trifluoromethyl-phenyl)-ethylamino]-pyrido[3,2-d]pyrimidine-8-carboxylic Acid Amide] | 25 to 100 nM | 101 to 500 nM |  | 
CCNC[C@@H](Nc1ncnc2c(C(N)=O)ccnc12)c1ccc(C(F)(F)F)c(C(F)(F)F)c1 [Compound 59, 4-[(S)-1-(3,4-Bis-trifluoromethyl-phenyl)-2-ethylamino-ethylamino]-pyrido[3,2-d]pyrimidine-8-carboxylic Acid Amide] | < 25 nM | < 25 nM |  | 
NC(=O)c1cncc2c(N[C@@H](CN3CCC3)c3ccc(Cl)c(C(F)(F)F)c3)ncnc12 [Compound 19, (R)-4-((2-(azetidin-1-yl)-1-(4-chloro-3-(trifluoromethyl)phenyl)ethyl)amino)pyrido[4,3-d]pyrimidine-8-carboxamide] | > 1000 nM | > 1000 nM |  | 
NC(=O)c1ccnc2c(N[C@H](CN3CCC3)c3ccc(Cl)c(C(F)(F)F)c3)ncnc12 [Compound 41, 4-[(S)-2-Azetidin-1-yl-1-(4-chloro-3-trifluoromethyl-phenyl)-ethylamino]-pyrido[3,2-d]pyrimidine-8-carboxamide] | < 25 nM | < 25 nM | 1.6 nM | 11 nM
NC(=O)c1cccc2c(N[C@H](CN3CCC3)c3ccc(Cl)c(C(F)(F)F)c3)nnnc12 [Compound 14, (S)-4-((2-(azetidin-1-yl)-1-(4-chloro-3-(trifluoromethyl)phenyl)ethyl)amino)benzo[d][1,2,3]triazine-8-carboxamide] | < 25 nM | < 25 nM |  | 
CNC[C@@H](Nc1ncnc2c(C(N)=O)ccnc12)c1ccc(C(F)(F)F)c(F)c1 [Compound 26, 4-[(S)-1-(3-Fluoro-4-trifluoromethyl-phenyl)-2-methylamino-ethylamino]-pyrido[3,2-d]pyrimidine-8-carboxylic Acid Amide] | < 25 nM | < 25 nM |  | 
CNC[C@@H](Nc1ncnc2c(C(N)=O)ccnc12)c1cc(F)c(F)cc1F [Compound 60, 4-[(S)-2-Methylamino-1-(2,4,5-trifluoro-phenyl)-ethylamino]-pyrido[3,2-d]pyrimidine-8-carboxylic Acid Amide] | 25 to 100 nM | 25 to 100 nM |  | 
NC(=O)c1ccnc2c(N[C@@H](CN3CCC3)c3ccc(Cl)c(C(F)(F)F)c3)ncnc12 [Compound 71, 4-[(R)-2-Azetidin-1-yl-1-(4-chloro-3-trifluoromethyl-phenyl)-ethylamino]-pyrido[3,2-d]pyrimidine-8-carboxylamide] | 501 to 1000 nM | > 1000 nM |  | 
CNC[C@@H](Nc1ncnc2c(C(N)=O)ccnc12)c1cc(F)c(OC)cc1F [Compound 32, 4-[(S)-1-(2,5-Difluoro-4-methoxy-phenyl)-2-methylamino-ethylamino]-pyrido[3,2-d]pyrimidine-8-carboxylic Acid Amide] | < 25 nM | 101 to 500 nM |  | 
